Molecular target: T1, human cloned 5-HT6 receptors (Homo sapiens, UniProt P50406)
T1 construct: expressed in transfected cells; host or cells: Hela cells
Experiment: 5-HT6 binding affinity, [3H]-LSD displacement in membranes of Hela cells
Conditions: for inhibition at 0.1 µM: test compound dose 100 nM, [3H]-LSD 3.0 nM

T1 sequence (P50406 whole entry): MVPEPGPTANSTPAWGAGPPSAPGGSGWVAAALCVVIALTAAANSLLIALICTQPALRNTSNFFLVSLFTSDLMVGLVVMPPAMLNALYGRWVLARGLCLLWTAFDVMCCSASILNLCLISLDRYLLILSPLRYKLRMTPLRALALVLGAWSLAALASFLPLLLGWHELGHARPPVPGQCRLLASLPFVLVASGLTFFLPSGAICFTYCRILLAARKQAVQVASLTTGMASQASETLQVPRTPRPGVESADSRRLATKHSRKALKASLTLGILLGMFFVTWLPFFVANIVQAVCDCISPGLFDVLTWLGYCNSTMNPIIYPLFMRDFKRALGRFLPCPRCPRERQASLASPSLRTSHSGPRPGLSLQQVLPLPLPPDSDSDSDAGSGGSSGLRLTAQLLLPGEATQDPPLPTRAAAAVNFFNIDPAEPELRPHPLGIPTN

Ki [nM] | inhibition at 0.1 µM [%] | Compound
 | 23.9 | CC(=NNC(=N)N)c1cn(C(=O)Oc2ccccc2)c2ccccc12 [Example 128, phenyl 3-(1-{2-[amino(imino)methyl]hydrazono}ethyl)-1H-indole-1-carboxylate]
 | 23.4 | CC(=NNC(=N)N)c1cn(C(=O)Nc2ccccc2)c2ccccc12 [Example 129, 3-(1-{2-[amino(imino)methyl]hydrazono}ethyl)-N-phenyl-1H-indole-1-carboxamide]
 | 49.6 | CC(=NNC(=N)N)c1cn(C(=O)c2ccccc2)c2ccccc12 [Example 130, 2-[1-(1-benzoyl-1H-indol-3-yl)ethylidene]hydrazinecarboximidamide]

Further lines, the compound ahead of its results:

Compound | Ki [nM] | inhibition at 0.1 µM [%]
CCC(=NNC(=N)N)c1cn(S(=O)(=O)c2ccc(N)cc2)c2ccc(Cl)cc12 [Example 121, 2-(1-{1-[(4-aminophenyl)sulfonyl]-5-chloro-1H-indol-3-yl}propylidene)hydrazinecarboximidamide] | 9 | 
CCC(=NNC(=N)N)c1cn(S(=O)(=O)c2ccc3ccccc3c2)c2ccc(Cl)cc12 [Example 122, 2-{1-[5-chloro-1-(2-naphthylsulfonyl)-1H-indol-3-yl]propylidene}hydrazinecarboximidamide] | 101 | 
CCCCCNC(=N)NN=C(C)c1cn(S(=O)(=O)c2ccccc2)c2ccccc12 [Example 123, N-Pentyl-2-{1-[1-(phenylsulfonyl)-1H-indol-3-yl]ethylidene}-hydrazinecarboximidamide] | 12 | 34
CCCNC(=N)NN=C(C)c1cn(S(=O)(=O)c2ccccc2)c2ccccc12 [Example 124, 2-{1-[1-(phenylsulfonyl)-1H-indol-3-yl]ethylidene}-N-propylhydrazinecarboximidamide] |  | 75.2
CC(=NNC(=N)NCc1ccccc1)c1cn(S(=O)(=O)c2ccccc2)c2ccccc12 [Example 125, N-benzyl-2-{1-[1-(phenylsulfonyl)-1H-indol-3-yl]ethylidene}hydrazinecarboximidamide] |  | 39.1
CC(=NNC(=N)NCc1ccccn1)c1cn(S(=O)(=O)c2ccccc2)c2ccccc12 [Example 126, 2-{1-[1-(phenylsulfonyl)-1H-indol-3-yl]ethylidene}-N-(pyridin-2-ylmethyl)hydrazinecarboximidamide] |  | 37.7
CC(=NNC(=N)NCCO)c1cn(S(=O)(=O)c2ccccc2)c2ccccc12 [Example 127, N-(2-hydroxyethyl)-2-{1-[1-(phenylsulfonyl)-1H-indol-3-yl]ethylidene}hydrazinecarboximidamide] |  | 83.3
